Legend:
olfactory epithelium [1] = details: for EOG amplitude compared with parent compound (coumarin or 4-MC): 1, 10 and 100 µM, normalized to IBMX; for EOG amplitude compared with parent compound (coumarin or 4-MC) / EOG response compared with quinoline: vehicle 0.01% DMSO; for EOG response compared with quinoline: 100 µM, normalized to IBMX responses
Procedure: Odorant stock solutions (1 M) were prepared in DMSO. Working solutions were prepared extemporaneously by diluting stock solutions with the Ringer solution. […] The IBMX stock solution (10 mM) was also prepared in DMSO. This stock solution was diluted 100-fold with the Ringer solution to produce a working solution (100 µM) containing 0.1% DMSO.
To assess sensory responses induced by odorant stimulation of the olfactory mucosa, we recorded EOGs. […] Rats were sacrificed by CO2 exposure and decapitated. The head was hemisected and the nasal septum was carefully removed to expose the endoturbinate system of the main olfactory system. The tissue was then superfused continuously (5 mL/min) at room temperature (22–25°C) with modified Ringer buffer containing 140 mM NaCl, 5 mM KCl, 2 mM CaCl2, 2 mM MgCl2, 10 mM HEPES [4-(2-hydroxyethyl)-1-piperazineethanesulfonic acid], adjusted to pH 7.2 and to 320 mOsm.L^−1 with glucose. Odorant stimuli were applied to the turbinates using a custom-built odorant delivery system consisting of a Rheodyne six-port injection valve equipped with a 200-µL loop. This valve injects odorant into the continuous stream of the Ringer solution. The distal part of the delivery system was fixed to a micromanipulator and adjusted to produce uniform flow in the vicinity of the recording electrode. The recording electrode was an Ag/AgCl wire positioned in a disposable pipette tip filled with a conductive gel (WPI, Sarasota, USA). The reference electrode was an 8-mm diameter Ag/AgCl disk covered with conductive gel that was placed under the rat hemi-head. Electrical signals were amplified using an AC/DC differential amplifier (A-M Systems, model 3000, Phymep, Paris, France), run through a low-pass filter of 300 Hz, digitized at 100 Hz using a Digidata 1440A interface board (Axon Instruments, DIPSI Industrie, Châtillon, France) and acquired using Axoscope 10.2 software (Axon Instruments). The data were analyzed using Clampfit software (Axon Instruments). The peak amplitudes of EOG responses were measured at the maximum negative voltage deflection from baseline. The data were normalized by dividing the peak amplitude by the maximum amplitude elicited by 100 µM of IBMX, a phosphodiesterase inhibitor that activates the transduction pathway bypassing the receptor step.

mammalian ORs = system: mammalian ORs; set-up: method as in PMID 19261596; details: approximately 460 mammalian ORs; cited from earlier work
carboxylesterases = experiment: Inhibition of isoamyl acetate hydrolysis in the olfactory S9 fraction; type: biochemical, rat
Procedure: (§1) Animals were sacrificed by decapitation. […] The resulting pellet was resuspended in homogenization buffer. Hepatic subcellular fractions were prepared as described previously.
(§2) Reactions involving isoamyl acetate were carried out for 10 min and were terminated by heating at 80°C for 15 min. After centrifugation at 12000 g for 10 min, isoamyl acetate metabolism was assessed by quantifying the acetate in a sample volume of 100 µL using an acetic acid assay kit (Megazyme, Bray, Ireland).
(§3) Coumarin Quinoline Isoamyl acetate
(§4) Subcellular fraction olfactory hepatic olfactory/hepatic olfactory/hepatic
(§5) microsomes microsomes microsomes S9

CYP = experiment: Quinoline/coumarin metabolism in microsomes from OM superfused with inhibitor for 20 min; type: biochemical, rat; details: 400 µM, superfusion 20 min
Procedure: Reactions were performed in triplicate at 37°C and were initiated by adding odorant to the mixtures after a 5-min pre-incubation period. […] Subsequently, the products were centrifuged at 12 000 g for 10 min. An aliquot of the supernatant (100 µl) was analyzed by reverse phase high performance liquid chromatography (HPLC) using a Waters HPLC system (Milford, MA, USA) equipped with a pump (model 600), an autosampler thermostat set at 10°C (model a717 plus), a photodiode array UV detector (model 996) and an Uptisphere C18-ODB column (5-µm particle size, 150×4.6 mm; Interchim, Montluçon, France). The effluent from the column was routed to an UV detector, which can scan wavelengths from 210 to 400 nm. […] The separation of coumarin and its metabolites was achieved using a solvent gradient program (at 0.6 mL/min) set at: 25% acetonitrile/75% formic acid (0.01% in water) for 10 min, a linear gradient to 80% acetonitrile for 20 min, hold at 80% acetonitrile for 10 min, and then return to the initial conditions.

CYPs [2] = experiment: Inhibition of coumarin metabolite formation in olfactory microsomes; type: biochemical, rat; details: for IC50: substrate coumarin
Procedure: as §1, §3, §4, §5

olfactory epithelium [3] = experiment: Effect of XME inhibitors on odorant-induced EOG responses; set-up: species or system rat
Procedure: Rats were sacrificed by CO2 exposure and decapitated. […] The data were analyzed using Clampfit software (Axon Instruments).
First, two series of odorant stimulations at 2-min intervals were performed with an 8-min recovery period between each series. Under control conditions, a 2-min interval is sufficient to recover normal response amplitude. Then, the inhibitor was diluted in the Ringer buffer (final concentration 400 µM) and applied to the olfactory turbinates at a rate of 2.5 mL/min for 20 min using the Rheodyne injection valve. The preparation was rinsed for 5 min with the Ringer buffer and the epithelium was stimulated by applying odorant using the same procedures as described above. EOG responses were recorded on endoturbinate IIb. IBMX was applied at the end of each measurement series for data normalization as described above. In addition to the peak maximum amplitude, the onset slope (10% to 90%) and the fast decay slope (90% to 40%) were measured and normalized to the corresponding EOG peak amplitude.

CYPs [4] = experiment: Inhibition of quinoline metabolism catalyzed by olfactory microsomes; type: biochemical, rat; details: for IC50: substrate quinoline
Procedure: as §1, §3, §4, §5

carboxylesterase = experiment: Isoamyl acetate metabolism in S9 from OM superfused with inhibitor for 20 min; type: biochemical, rat; details: 400 µM, superfusion 20 min
Procedure: To investigate the functional role of the olfactory XMEs, we recorded odorant-induced EOG responses before and after applying two phase I enzyme inhibitors, ABT and BNPP. First, we confirmed that superfusion of OM with ABT or BNPP was sufficient to inhibit CYP and carboxylesterase activities, respectively. For this purpose, the in vitro metabolism of quinoline, coumarin and isoamyl acetate was measured. All steps were performed as described previously except that the microsomal or S9 fractions were prepared from OM that had been superfused with inhibitors for 20 min. Superfusion of the OM with 400 µM of ABT or BNPP decreased the metabolism of quinoline/coumarin or isoamyl acetate, respectively, by approximately 30 to 80% (Fig. S6).
as §2

[5] = In vitro metabolism of coumarin by olfactory microsomes (HPLC); type: in vitro ADME, rat
Procedure: as §1, §3, §4, §5

[6] = In vitro metabolism of coumarin by hepatic microsomes (HPLC); type: in vitro ADME, rat; details: liver (hepatic microsomes) incubation
Procedure: as §1, §3, §4, §5

[7] = inhibitor 400 µM for 20 min, endoturbinate IIb

## Cc1cc(=O)oc2ccccc12 [4-MC, 4-methyl-coumarin]
Olfactory epithelium [1]
  EOG amplitude compared with parent compound (coumarin or 4-MC): lower in amplitude than the responses to coumarin

## Cc1cc(=O)oc2cc(O)ccc12 [4-MU, 4-methylumbelliferone]
Olfactory epithelium [1]
  EOG amplitude compared with parent compound (coumarin or 4-MC): significantly lower than those induced by their parent compounds

## Cc1cc(=O)oc2cc(O[C@@H]3O[C@H](C(=O)O)[C@@H](O)[C@H](O)[C@H]3O)ccc12 [4-MU-G, 4-methylumbelliferone-β-D-glucuronide]
Olfactory epithelium [1]
  EOG amplitude compared with parent compound (coumarin or 4-MC): did not elicit any measurable EOG response

## O=c1cc(O)c2ccccc2o1 [4-OH-C, 4-hydroxycoumarin]
Mammalian ORs
  number of ORs activated: only activated one OR
Olfactory epithelium [1]
  EOG amplitude compared with parent compound (coumarin or 4-MC): significantly lower than those induced by their parent compounds

## O=c1ccc2ccc(O)cc2o1 [7-OH-C, 7-hydroxycoumarin]
Olfactory epithelium [1]
  EOG amplitude compared with parent compound (coumarin or 4-MC): significantly lower than those induced by their parent compounds

## Oc1cccc2cccnc12 [8-OH-Q, 8-hydroxyquinoline]
Olfactory epithelium [1]
  EOG response compared with quinoline: half of that elicited by quinoline

## Nn1nnc2ccccc21 [ABT, 1-aminobenzotriazole]
carboxylesterases; data not shown
  effect on isoamyl acetate hydrolysis: no effect
CYP
  decrease of metabolism of quinoline/coumarin after superfusion of the OM: 30 to 80%
CYPs [2]; inhibitor 400 µM
  inhibition of coumarin metabolite formation: Ninety percent
CYPs [2]; read-out: IC50 for inhibition of 3-hydroxycoumarin formation
  IC50: 41 µM
CYPs [2]; read-out: IC50 for inhibition of 6-hydroxycoumarin formation
  IC50: 52 µM
CYPs [2]; read-out: IC50 for inhibition of 7-hydroxycoumarin formation
  IC50: 19 µM
Olfactory epithelium [3]; ABT 400 µM for 20 min, endoturbinate IIb
  effect on EOG responses to isoamyl acetate: did not affect
Olfactory epithelium [3]; inhibitor 400 µM for 20 min
  effect on onset and decay slopes of EOG recordings: unaffected
Olfactory epithelium [3]; [7]
  increase of maximum EOG amplitude elicited by coumarin: 43%
  increase of maximum EOG amplitude elicited by quinoline: 32%
CYPs [4]; inhibitor 400 µM
  decrease of the metabolism of quinoline: approximately 80%
CYPs [4]; read-out: IC50 for inhibition of quinoline-1-oxide formation
  IC50: 134 µM
CYPs [4]; read-out: IC50 for inhibition of quinoline-5,6-epoxide formation
  IC50: 147 µM

## O=[N+]([O-])c1ccc(OP(=O)(O)Oc2ccc([N+](=O)[O-])cc2)cc1 [BNPP, bis-p-nitro-phenylphosphate]
carboxylesterases; olfactory S9 fraction
  IC50: 0.8 µM
CYPs [2]; data not shown
  effect on coumarin metabolism: not affected
Olfactory epithelium [3]; BNPP treatment, stated in the discussion only
  effect on EOG responses elicited by coumarin: but not those elicited by quinoline and coumarin
Olfactory epithelium [3]; inhibitor 400 µM for 20 min
  effect on onset and decay slopes of EOG recordings: did not modify
Olfactory epithelium [3]; [7]
  increase of maximal EOG response amplitude to isoamyl acetate: 30%
CYPs [4]; data not shown
  effect on olfactory metabolism of quinoline: not affected
carboxylesterase
  decrease of metabolism of isoamyl acetate after superfusion of the OM: 30 to 80%

## [O-][n+]1cccc2ccccc21 [Q-1-O, quinoline-1-oxide]
Olfactory epithelium [1]
  EOG response compared with quinoline: half of that elicited by quinoline

## CC(=O)O [acetic acid]
Olfactory epithelium [1]
  effect of repeated application on the OM: caused tissue damage

## O=c1ccc2ccccc2o1 [coumarin]
[5]; OM (olfactory microsomes) incubation
  rate of coumarin biotransformation: 13.3 nmol/min/mg protein
[5]; OM higher than liver
  rate of coumarin biotransformation, OM versus liver incubation: 65 fold
[6]
  rate of coumarin biotransformation: 0.2 nmol/min/mg protein
Mammalian ORs
  number of ORs activated: 20

## CC(C)CCO [isoamyl alcohol]
Olfactory epithelium [1]; at any concentration (1, 10, 100 µM)
  EOG response amplitude, lower than that elicited by isoamyl acetate: approximately 60%
